The record followed here is patent publication US20220305021A1, “METHODS OF TREATING AND/OR PREVENTING PSORIASIS” (Athenex, Inc., priority 2019, published 2022).

Molecules are shown by their SMILES.

One data set has as its system subjects with psoriasis. Description: Phase I clinical trial of topical KX-01 ointment in subjects with psoriasis. It counts as in vivo, human. The method, then:
Six subjects with psoriasis with Total Area Score (TAS) of 4-8 (based on the sum of the scores of erythema, elevation and scaling) were assessed. […] In stage I, each subject will be assigned randomly to KX-01 (0.01%, n=6) or placebo (n=2) before the first administration of investigational medicinal product (KX-01 or placebo). 22 subjects are recruited in three stages. Each subject in stage I will receive treatment for two weeks, followed by one-week wash-out, another two-week treatment, and then two-week follow-up. After a satisfactory collaborative review for the safety data of the lower strength (0.01%) at the end of follow up for each subject, if there is no major safety concern (major safety concern is defined as ≥2 subjects in the KX-01 group having ≥CTCAE Grade 3 or severe adverse drug reaction), as well as an unanimous consent by the sponsor and the principle investigator(s), stage II study begins where each subject is assigned randomly to KX-01 (0.1%, n=6) or placebo (n=2) before the first administration. Each subject in the stage II will receive treatment for four weeks, followed by a two-week follow-up. After a satisfactory collaborative review for the safety data of the lower strength (0.1%) at the end of follow up for each subject, if there is no major safety concern, stage III study follows. Stage III comprises a single arm study (n=6), where each subject will receive 1% KX-01 once daily for consecutive five days and then receive post-treatment follow-up on day 6, 15, and 29. • Stage I: 6 subjects (KX-01 0.01% [0.1 mg/g])+2 subjects (placebo) • Stage II: 6 subjects (KX-01 0.1% [1.0 mg/g])+2 subjects (placebo) • Stage III: 6 subjects (KX-01 1% [10 mg/g]) Subjects visit the study center for ambulatory visits: • Stage I (See Tables 1A and 1B) • Visit 1: Screening, within 28 days before first application of IMP • Visit 2: Week 1 (Day 1/Baseline) • Visit 3: Week 2 (Day 8±3/After consecutive 1-week treatment) • Visit 4: Week 3 (Day 15±3/After consecutive 2-week treatment) • Visit 5: Week 4 (Day 22±3/After 1 week wash-out) • Visit 6: Week 6 (Day 36±3/After another consecutive 2-week treatment) • Visit 7: Week 8 (Day 50±3/After 2-week post-treatment follow-up) • Stage II (See Tables 2A and 2B) • Visit 1: Screening, within 28 days before first application of IMP • Visit 2: Week 1 (Day 1/Baseline) • Telephone interview (Day 8±3, after consecutive 1-week treatment) • Visit 3: Week 3 (Day 15±3/After consecutive 2-week treatment) • Visit 4: Week 5 (Day 29±3/After consecutive 4-week treatment) • Visit 5: Week 7 (Day 43±3/After 2-week post-treatment follow-up) • […] (See Table 3) • Visit 1: Screening, within 28 days before first application of IMP • Visit 2: Day 1, baseline • Visit 3: Day 6±1, after consecutive 5-day treatment • Visit 4: Day 15±2, after 10-day post-treatment follow up • Visit 5: Day 29±2, after 24-day post-treatment follow-up The IMP (treatment or placebo) is applied to a single lesion. […] For stage I, each subject receives IMP for 14 consecutive days, followed by 1-week wash-out period and then receives IMP for another 14 consecutive days. For stage II, each subject receives IMP for 28 consecutive days. For stage III, each subject receives IMP once daily for consecutive five days. For stage I and II, blood samples for the determination of KX-01 concentrations are collected prior to the morning dose at the designated ambulatory visits to the study center (Stage I: Day 1, 8±3, 15±3, 22±3 Stage II: Day 1, 15±3, 29±3) (See Table 4). For stage III, blood samples for drug concentrations are collected prior to the dose on day 1, and day 6±1, day 15±2. The duration of this study is approximately three months for each subjects (See Table 4). On day 1, a single treatment lesion consisting of active psoriasis skin lesion of at least 16 cm^2 in size with upper limit of 625 cm^2 for stage I and II, and at least 16 cm^2 and no more than 100 cm^2 (≥16 cm^2 &≤100 cm^2) in size for stage III is selected for each subject. […]

The subject of a further data set is rats. Description: Twice daily dermal administration of KX-01 ointment to rats (six days). It counts as in vivo, rat. The method, then: Subjects in clinical studies of KX-01 ointment where administered KX-01 ointment up to 250 mg (5 mg/cm^2 [administration amount]×25 cm^2 [administration area]×2 [safety factor for larger application area]). This amount of the 0.01% or 0.1% concentration of ointment contains 0.025 mg or 0.25 mg of KX-01. Therefore, the amount of KX-01 delivered to the skin of the average 60 kg subject is 0.025 or 0.25 mg/60 kg/dose, or 0.00042 or 0.0042 mg/kg/dose. […] The safety margin in administered dermal KX-01 dose indicates little risk of adverse systemic effects in humans under the conditions of the clinical studies of KX-01 ointment based on nonclinical studies in animals.

A further data set relates to rabbits. Kind of data set: Twice daily dermal administration of KX-01 ointment to rabbits (seven days, single dose on day eight). It counts as in vivo, rabbit. The following applies: up to 2.0667 mg/kg KX-01 in ointment, seven days twice daily dosing with a single dose on day eight.
Another data set deals with mini-pigs. Kind of data set: Once daily KX-01 1% ointment on mini-pigs, occluded skin, 28 days. It counts as in vivo, mini-pig. The source says:
KX-01 1% once daily administration of KX-01 ointment was examined on the mini-pigs on 10% of body surface area with skin being occluded for consecutive 28 days.

[1] abbreviates: 1% ointment daily for five days, observed in one subject.
[2] abbreviates: KX-01 ointment 0.01% twice daily dose regimen.
The mark [3] stands for this setting: 1% ointment once daily, 10% of body surface area, occluded, 28 consecutive days.

As to `O=C(Cc1ccc(-c2ccc(OCCN3CCOCC3)cc2)cn1)NCc1ccccc1` [KX-01, Tirbanibulin], in the data set with subjects with psoriasis (1% ointment daily for five days, topical), the “Systemic absorption of KX-01” value is reported as “no significant absorption”. Moreover, the Psoriatic plaque thickness result with subjects with psoriasis (1% ointment daily for five days, another subject of six) is “improvement”. In addition, in the data set on subjects with psoriasis (setting [1]), the “Skin burning sensation (adverse event severity)” value was “mild (grade-1)” and the “Skin irritation (adverse event severity)” value is on record as “mild (grade-1)”. Further, in the data set with subjects with psoriasis (1% ointment daily for five days, one subject of six), the Skin scaling result was “complete resolution”. The Tolerability of treatment entry in the data set on subjects with psoriasis (1% ointment daily for five days, six subjects) was “well-tolerated”. In the data set with subjects with psoriasis (1% ointment daily for five days, six subjects, baseline TAS 4-8), the “TAS score (sum of erythema, elevation and scaling)” value is “All subjects showed an improvement”. In addition, the Clinical activity result in the data set with subjects with psoriasis (KX-01 (Tirbanibulin) 1% ointment daily for five days, first cohort of subjects with psoriasis) is given as “Clinical activity signals were observed”. In addition, in the data set with subjects with psoriasis (setting [2]), the “Serious adverse events (SAE)” value is recorded as “No serious adverse event” and the “Treatment-emergent adverse events related to drug” value is “Only one treatment-emergent adverse event, Grade 1 tenderness”. Also, the Tolerability result in the data set on subjects with psoriasis (KX-01 ointment 0.01% twice daily dose regimen, most subjects) is “excellent and good”. Besides, the Safety profile entry in the data set on subjects with psoriasis (KX-01 ointment in the treatment of psoriasis) is reported as “Good safety profile”. Further, in the data set on rats (0.01% ointment, 0.025 mg/60 kg/dose (0.00042 mg/kg/dose) in humans vs 12.4 mg/kg/dose in rats), the “Safety margin: clinical dermal dose times lower than rat 12.4 mg/kg/dose” value is on record as “approximately 29700 times”. In the data set on rats (0.1% ointment, 0.25 mg/60 kg/dose (0.0042 mg/kg/dose) in humans vs 12.4 mg/kg/dose in rats), the “Safety margin: clinical dermal dose times lower than rat 12.4 mg/kg/dose” value is about 2970 times. For the same molecule, the “Plasma concentrations of KX-01” value in the data set with rats (rat, in vivo) is listed as “very low”. In addition, in the data set on rabbits, the Skin irritation entry is “mild to moderate” and the Systemic adverse effects result is “no signs of systemic adverse effects”. Moreover, in the data set on mini-pigs (setting [3]), the Body weight result was “decreased”; the “Edema at the drug application site” value was “very slight to slight”; the “Erythema and eschar at the drug application site” value is recorded as “very slight to severe”; the “Hepatic, renal, and haematological profiles” value is recorded as “changes”. Moreover, the “Other skin findings at the drug application site” value with mini-pigs (setting [3]) is recorded as “desquamation, fissuring, scab, ulceration”. Besides, the Reversibility of findings result in the data set with mini-pigs (by the last week of recovery after 28 days of 1% ointment) is listed as “Most of these findings were resolved”.
